Laboratory results reported in patent US20070004660A1, “Synergistic Modulation of Flt3 Kinase Using Alkylquinolines and Alkylquinazolines” (priority 2005, published 2007).

Legend:
Baf3-FLT3 cells = experiment: Cell proliferation assay, single agents and FTI/FLT3 inhibitor combinations, Baf3-FLT3; format: cell-based, murine; settings: with single sub-IC50 dose of FLT3 inhibitor Compound A, 100 nM
Procedure: (§1) The cell lines that were tested included those that are dependent on FLT3ITD mutant activity for growth (MV4-11 and Baf3-FLT3ITD), FLT3wt activity for growth (Baf3FLT3) and those that grow independent of FLT3 activity (THP-1). […] Baf3-FLT3 and Baf3-FLT3ITD cell lines were obtained from Dr. Michael Henrich and the Oregon Health Sciences University. The Baf3 FLT3 cell lines were created by stable transfection of parental Baf3 cells (a murine B cell lymphoma line dependent on the cytokine IL-3 for growth) with either wild-type FLT3 or FLT3 containing the ITD insertion in the juxatamembrane domain of the receptor resulting in its constitutive activation. […]
(§2) To statistically evaluate the synergy of a FLT3 inhibitor and an FTI in FLT3 dependent cell lines, dosing combinations were evaluated by the method of Chou and Talalay. See Chou T C, Talalay P. (1984) “Quantitative analysis of dose-effect relationships: the combined effects of multiple drugs or enzyme inhibitors.” Adv Enzyme Regul. […] Using this method, multiple FTI and FLT3 combinations were evaluated. […]
(§3) Cell proliferation assay for MV4-11, Baf3-ITD, Baf3-FLT3 and THP-1 cells. […] Total cell growth is quantified as the difference in luminescent counts (relative light units, RLU) of cell number at Day 0 compared to total cell number at Day 3 (72 hours of growth and/or compound treatment). […]

[1] = tested on: patients with relapsed and refractory AML; settings: cited from earlier work
MV4-11 AML cells = experiment: Cell proliferation assay, single agents and FTI/FLT3 inhibitor combinations, MV4-11; format: cell-based, human
Procedure: Dose responses for the individual compounds alone were determined for each cell line using a standard 72-hour cell proliferation assay (see FIGS. 6.1-6.8). The standard chemotherapeutic agent Cytarabine was used as a control cytotoxic agent in all experiments. […] The FLT3 inhibitors, Compounds A, B, C, D, E, F G and H individually have good potency (sub-micromolar) for the inhibition of FLT3 driven proliferation (compared to the first line cytotoxic agent Cytarabine and Tipifarnib) in cells that depend on FLT3 for growth. Each of these chemically distinct compounds alone has potential for the treatment of disorders related to FLT3, such as FLT3 positive AML. […] The FLT3 inhibitors tested had no effect on THP-1 proliferation. […] (See FIGS. 10.1-10.8 and Tables 1-3, hereafter.)
To statistically evaluate the synergy of a FLT3 inhibitor and an FTI in FLT3 dependent cell lines, dosing combinations were evaluated by the method of Chou and Talalay. See Chou T C, Talalay P. (1984) “Quantitative analysis of dose-effect relationships: the combined effects of multiple drugs or enzyme inhibitors.” Adv Enzyme Regul. 22:27-55. […] Using this method, multiple FTI and FLT3 combinations were evaluated. […]
as §3, with “treatment). One hundred percent inhibition of growth is defined as an RLU equivalent to the Day 0 reading.” for “treatment).”
Combination Index Analysis. To determine growth inhibition synergy of a FTI and FLT3 inhibitor combination based on the method of Chou and Talalay (Chou and Talalay. See Chou T C, Talalay P. (1984) “Quantitative analysis of dose-effect relationships: the combined effects of multiple drugs or enzyme inhibitors.” Adv Enzyme Regul. 22:27-55. ), fixed ratio combination dosing with isobolar statistical analysis was performed. […]

Baf3-ITD cells = experiment: Cell proliferation assay, single agents and FTI/FLT3 inhibitor combinations, Baf3-ITD; format: cell-based, murine; settings: with single sub-IC50 dose of FLT3 inhibitor Compound A, 50 nM
Procedure: as §1, §2, §3

[2] = multicenter Phase II trial, relapsed AML

SMILES: Cn1cncc1C(N)(c1ccc(Cl)cc1)c1ccc2c(c1)c(-c1cccc(Cl)c1)cc(=O)n2C (single isomer, unassigned; (+)) [Tipifarnib, (+)-6-[amino(4-chlorophenyl)(1-methyl-1H-imidazol-5-yl)methyl]-4-(3-chlorophenyl)-1-methyl-2(1H)-quinolinone]
- increase in potency of Tipifarnib (Baf3-FLT3 cells): more than 3 fold
- >50% reduction in bone marrow blasts [1, 2]: 31 of 50
- complete responses (bone marrow blasts <5%) [1, 2]: 17 of 50
- response rate ([1]; patients with relapsed and refractory AML): ~30%
- potency for inhibition of proliferation, single agent (MV4-11 AML cells; 72-hour assay, cells that depend on FLT3 for growth (Tipifarnib: depending on the cell type)): high nanomolar to high picomolar range
- increase in potency of Tipifarnib (MV4-11 AML cells; with single sub-IC50 dose of FLT3 inhibitor Compound A, 50 nM): more than 3 fold
- increase in potency of Tipifarnib (Baf3-ITD cells): more than 3 fold
